The text below walks through data of patent US6864247B2, “Therapeutic agents for glomerulosclerosis” (priority 1999, dated 2005).

For data set [1], the system named is rat model of anti-Thy 1 antibody-induced nephritis. The experiment in a line: Renal histology (glomerular cell count, glomerulosclerosis index, glomerular volume) in rat model of anti-Thy 1 antibody-induced nephritis. Type of data set: in vivo. The settings on record: 0.4 μg/kg intravenously every two days from the day after OX-7, day 7; for glomerular cell count: FIG. 1; for glomerular volume: FIG. 3; for glomerulosclerosis index: PAM stained samples, FIG. 2. From the text: The pharmacological effect of 22-oxa-1α,25-dihydroxyvitamin D3 used as an active ingredient in the present invention can be evaluated on a rat model of a anti-Thy 1 antibody-induced nephritis characterized by showing increased mesangial cell proliferation and mesangial matrix production after administration of an anti-Thy 1 antibody. The pharmacological effect of test compounds can be evaluated by administering an anti-Thy 1 antibody to such a rat model followed by the test compounds, collecting renal tissue at an appropriate time and determining the glomerular cell count or glomerulosclerosis index or determining the expression of collagen by a standard method such as an immunohistochemical technique.
(§1) An anti-Thy 1 antibody (OX-7 purchased from CEDARLANE, Ontario, Canada) was administered into the tail vein of 6-week-old male Wistar rats at 1 mg/kg to induce anti-Thy 1 nephritis. Next day after OX-7 administration, 22-oxa-1α,25-dihydroxyvitamin D3 was intravenously administered at 0.4 μg/kg every two days, and on day 7 after administration, serum, urine and renal tissue were collected.
(§2) For comparison, 1α,25-dihydroxyvitamin D3 was administered in the same manner instead of 22-oxa-1α,25-dihydroxyvitamin D3. Rats not treated with the anti-Thy 1 antibody were used as normal controls. Rats treated with the anti-Thy 1 antibody alone without any vitamin D derivative were used as disease controls.
In the renal tissue, the glomerular cell count, glomerulosclerosis index and glomerular volume were determined (FIGS. 1, 2 and 3). The “glomerular cell count” was determined by counting every cell in every measurable glomerulus on hematoxylin-eosin stained samples. The “glomerulosclerosis index” was evaluated on PAM (periodic acid-methenamine-silver) stained samples according to the method of Raji et al. The “glomerular volume” was determined by using NIH image to calculate the volume of glomeruli read by an image analyzer.

A further data set deals with type I collagen (ColI). The data set can be described thus: Immunohistological examination of type I collagen expression in the mesangium, anti-Thy 1 nephritis rat. Type of data set: in vivo. The following applies: 0.4 μg/kg intravenously every two days; day 7; immunohistochemistry. As for the experimental part: as §1, §2
(§3) In the renal tissue, the expression of type I collagen (ColI) and type IV collagen (ColIV) in the mesangium was immunohistologically examined (FIGS. 4-11). Staining was performed on 4 μm sections using an ABC Elite peroxidase staining kit (Vector Lab., Burlingame, Calif., U.S.A.) according to the manufacturer's instructions. The primary antibodies used were a guinea pig anti-rat type I collagen antibody (Boehringer Ingelheim, Co., Ltd., Ingelheim, Germany) and a rabbit anti-rat type IV collagen antibody (Boehringer Ingelheim, Co., Ltd., Ingelheim, Germany).

The test system of the next data set is type IV collagen (ColIV). The data set can be described thus: Immunohistological examination of type IV collagen expression in the mesangium, anti-Thy 1 nephritis rat. Type of data set: in vivo. The settings on record: 0.4 μg/kg intravenously every two days; day 7; immunohistochemistry. As to the method: as §1, §2, §3
Data set [2] deals with rat model of anti-Thy 1 antibody-induced nephritis. The data set can be described thus: Urinary albumin by ELISA in anti-Thy 1 nephritis rat. Type of data set: in vivo. The following applies: 0.4 μg/kg intravenously every two days; day 7; FIG. 13. As for the experimental part:
as §1, §2
In addition, serum calcium (Ca) was determined with an autoanalyzer (AUTOANALYZER, HITACHI 7170, Tokyo, Japan) and urinary albumin (uALB) was determined with an ELISA kit NEPHRAT II (EXOCELL, INC) (FIGS. 12 and 13).

Another data set concerns human mesangial cells. The settings on record: literature report; cited from earlier work.
The conditions of data set [3]: literature report; cited from earlier work.
The conditions of data set [4]: described in Japanese Patent No. 2854600; cited from earlier work.

Take `C=C1/C(=C\C=C2/CCC[C@]3(C)[C@@H]([C@H](C)CCCC(C)(C)O)CC[C@@H]23)C[C@@H](O)C[C@@H]1O` [1α,25-dihydroxyvitamin D3, reference compound]: in data set [1], the glomerular cell count entry was “significantly suppressed”, the glomerular volume result is reported as “no effect” and the glomerulosclerosis index entry is given as “significantly suppressed”. Further, the “expression of ColI in the mesangium” value in the data set with type I collagen (ColI) was “clearly inhibited”. For the same compound, the “expression of ColIV in the mesangium” value with type IV collagen (ColIV) was “clearly inhibited”. In data set [2], the “uALB levels (urinary albumin)” value is “significantly suppressed”. Also, the “antiproliferative effect on human mesangial cells” value in the data set with human mesangial cells is listed as “antiproliferative effect”.
For `C=C1/C(=C\C=C2/CCC[C@]3(C)[C@@H]([C@H](C)OCCC(C)(C)O)CC[C@@H]23)C[C@@H](O)C[C@@H]1O` [22-oxa-1α,25-dihydroxyvitamin D3, 1α,3β-dihydroxy-20α-(3-hydroxy-3-methylbutyloxy)-9,10-seco-5,7,10 (19)-pregnatriene], in data set [1], the glomerular cell count entry is on record as “significantly suppressed”, the glomerular volume result is on record as “no effect” and the glomerulosclerosis index result is on record as “significantly suppressed”. Moreover, the “expression of ColI in the mesangium” value in the data set on type I collagen (ColI) is “clearly inhibited”. In addition, the “expression of ColIV in the mesangium” value in the data set with type IV collagen (ColIV) is “clearly inhibited”. Besides, in data set [2], the “uALB levels (urinary albumin)” value is “significantly suppressed”. In data set [3], the differentiation-inducing effect entry was “show a differentiation-inducing effect” and the hypercalcemia result is given as “without causing hypercalcemia”. For the same compound, in data set [4], the urinary protein excretion result is “inhibits”.
